Experimental data: ChEMBL document CHEMBL4354830, “Discovery of Benzo[cd]indol-2(1H)-ones and Pyrrolo[4,3,2-de]quinolin-2(1H)-ones as Bromodomain and Extra-Terminal Domain (BET) Inhibitors with Selectivity for the First Bromodomain with Potential High Efficiency against Acute Gouty Arthritis” (J Med Chem, 2019)

How the values were obtained:
[1] = biological target: T1, Bromodomain-containing protein 4 (Homo sapiens, UniProt O60885); experiment: Displacement of tetra-acetylated histone H4 peptide (1-21) from recombinant human N-terminal His-tagged BRD4 BD1 (44 to 170 residues) expressed in Escherichia coli assessed as protein activity at 2 uM incubated for 30 mins followed by further incubation with tetra-acetylated histone H4 peptide (1-21) for 30 mins by Alphascreen assay
[2] = biological target: T1, Bromodomain-containing protein 4; experiment: Displacement of tetra-acetylated histone H4 peptide (1-21) from recombinant human N-terminal His-tagged BRD4 BD1 (44 to 170 residues) expressed in Escherichia coli incubated for 30 mins followed by further incubation with tetra-acetylated histone H4 peptide (1-21) for 30 mins by Alphascreen assay
[3] = biological target: T1, Bromodomain-containing protein 4; experiment: Displacement of tetra-acetylated histone H4 peptide (1-21) from recombinant human N-terminal His-tagged BRD4 BD2 (349 to 460 residues) expressed in Escherichia coli incubated for 30 mins followed by further incubation with tetra-acetylated histone H4 peptide (1-21) for 30 mins by Alphascreen assay
RAW264.7 = experiment: Inhibition of LPS-induced NO overproduction in mouse RAW264.7 cells at 1 uM incubated for 2 hrs followed by LPS stimulation and measured after 22 hrs by Griess reagent based assay relative to control; assay type: functional; conditions: for inhibition at 1 µM: Mus musculus, RAW264.7
[4] = biological target: T1, Bromodomain-containing protein 4; experiment: Binding affinity to recombinant human N-terminal His-tagged BRD4 BD1 (44 to 170 residues) expressed in Escherichia coli assessed as change in melting temperature at 10 uM by SYPRO Orange based differential scanning fluorimetry

SMILES	Activity [1] [%]	IC50 [2] [µM]	IC50 [3] [µM]	inhibition at 1 µM (RAW264.7) [%]	ΔTm [4] [°C]	inhibition (INH) (RAW264.7) [%]
CN1C(=O)c2cc(-c3cnn(C4CC4)c3)cc3c(NS(=O)(=O)c4ccc(Cl)cc4Cl)ccc1c23	61.8					
CN1C(=O)c2cc(N3CCOCC3)nc3c(NS(=O)(=O)c4ccc(Cl)cc4)ccc1c23		0.217				
COc1ccccc1S(=O)(=O)Nc1ccc2c3c(cc(NC4CC4)nc13)C(=O)N2C		0.271	0.66			
CN1CCN(c2cc3c4c(ccc(NS(=O)(=O)c5ccc(Cl)cc5)c4n2)N(C)C3=O)CC1		0.391				
COc1ccccc1S(=O)(=O)Nc1ccc2c3c(cc(N[C@H](C)c4ccccn4)nc13)C(=O)N2C		2.23				
COc1ccccc1S(=O)(=O)Nc1ccc2c3c(cc(NCC4CCN(C)CC4)nc13)C(=O)N2C		0.113	1.28	47.2		
COc1ccccc1S(=O)(=O)Nc1ccc2c3c(ccnc13)C(=O)N2C		0.205	4.6	94.3	7.64	
O=C1Nc2ccc(NS(=O)(=O)c3ccc(Cl)cc3)c3cccc1c23		0.769	15.5		3.73	
CN1C(=O)c2cccc3c(NS(=O)(=O)c4ccccc4Cl)ccc1c23		1.53	6.05		5.37	
CN1C(=O)c2cccc3c(NS(=O)(=O)c4ccc(F)cc4Cl)ccc1c23		0.0913	3.83	98.1	6.23	
COc1ccccc1S(=O)(=O)Nc1ccc2c3c(cc(NCCN4CCN(C)CC4)nc13)C(=O)N2C		0.223	1.52	39.6		
COc1ccccc1S(=O)(=O)Nc1ccc2c3c(cccc13)C(=O)N2C		0.0495	2.48	51.4	8.72	
COc1ccccc1S(=O)(=O)Nc1ccc2c3c(cc(-c4cnn(C)c4)cc13)C(=O)N2C		0.0174	0.435	102		
COc1cc(Cl)ccc1S(=O)(=O)Nc1ccc2c3c(cccc13)C(=O)N2C		0.299	3.47		7.1	
CN1C(=O)c2cc(-c3ccoc3)cc3c(NS(=O)(=O)c4ccc(Cl)cc4)ccc1c23	56.6					
CN1C(=O)c2ccnc3c(NS(=O)(=O)c4ccc(Cl)cc4)ccc1c23		3.47	20.5		6.53	
COc1ccc(Cl)cc1S(=O)(=O)Nc1ccc2c3c(cc(-c4cnn(C5CC5)c4)cc13)C(=O)N2C	64.9					
COc1ccccc1S(=O)(=O)Nc1ccc2c3c(cc(-c4ccoc4)cc13)C(=O)N2C		0.164				
COc1ccccc1S(=O)(=O)Nc1ccc2c3c(cc(N4CCOCC4)nc13)C(=O)N2C		0.0952	0.808	100		

SMILES	Activity [1] [%]	IC50 [2] [µM]	IC50 [3] [µM]	inhibition at 1 µM (RAW264.7) [%]	ΔTm [4] [°C]	inhibition (INH) (RAW264.7) [%]
COc1ccccc1S(=O)(=O)Nc1ccc2c3c(cc(-c4cnn(Cc5ccccc5)c4)cc13)C(=O)N2C		0.205				
COc1ccccc1S(=O)(=O)Nc1ccc2c3c(cc(-c4ccoc4)nc13)C(=O)N2C		0.037	0.459	66.3		
Cc1ccccc1S(=O)(=O)Nc1ccc2c3c(cccc13)C(=O)N2C		0.709			5.1	
COc1ccccc1S(=O)(=O)Nc1ccc2c3c(cc(-c4cnn(C5CC5)c4)nc13)C(=O)N2C		0.0166	0.107			
CN1C(=O)c2cc(-c3cnn(C4CC4)c3)cc3c(NS(=O)(=O)c4ccc(Cl)cc4)ccc1c23		0.666				
CCCn1cc(-c2cc3c4c(ccc(NS(=O)(=O)c5ccccc5OC)c4c2)N(C)C3=O)cn1		0.0437	0.266	106		
Cc1sc2c(c1C)C(c1ccc(Cl)cc1)=N[C@@H](CC(=O)OC(C)(C)C)c1nnc(C)n1-2						47.56
COc1ccccc1S(=O)(=O)Nc1ccc2c3c(cc(NCC4CCOCC4)nc13)C(=O)N2C		0.503				
CN1C(=O)c2cccc3c(NS(=O)(=O)c4cccc(Cl)c4F)ccc1c23		1.7			4.83	
CN1C(=O)c2cccc3c(NS(=O)(=O)c4ccccc4OC(F)(F)F)ccc1c23		3.89			4.73	
Cc1cc(F)ccc1S(=O)(=O)Nc1ccc2c3c(cccc13)C(=O)N2C		0.81			4.32	
COc1ccccc1S(=O)(=O)Nc1ccc2c3c(cc(N4CCC(CO)CC4)nc13)C(=O)N2C		0.169	29.6			
CCOC(=O)CC1CCN(c2cc3c4c(ccc(NS(=O)(=O)c5ccccc5OC)c4n2)N(C)C3=O)CC1		0.709				
COc1ccccc1S(=O)(=O)Nc1ccc2c3c(cc(NC(C)(C)C)nc13)C(=O)N2C		0.573	2.08			
CCCn1cc(-c2cc3c4c(ccc(NS(=O)(=O)c5ccc(Cl)cc5OC)c4c2)N(C)C3=O)cn1		0.107	0.32			
CN1C(=O)c2cccc3c(NS(=O)(=O)c4cccs4)ccc1c23		3.72			4.02	
CN1C(=O)c2cc(-c3cnn(C)c3)cc3c(NS(=O)(=O)c4ccc(Cl)cc4)ccc1c23		0.348				
Cc1ccc(S(=O)(=O)Nc2ccc3c4c(cccc24)C(=O)N3C)cc1		0.545	2.28		7.36	
CN1C(=O)c2cccc3c(NS(=O)(=O)c4cccnc4)ccc1c23		2.44	13.7		2.3	

SMILES	Activity [1] [%]	IC50 [2] [µM]	IC50 [3] [µM]	inhibition at 1 µM (RAW264.7) [%]	ΔTm [4] [°C]	inhibition (INH) (RAW264.7) [%]
CN1C(=O)c2cccc3c(NS(=O)(=O)c4ccc(Cl)cc4)ccc1c23		0.167	2.72	15.1	6.5	
COc1ccccc1S(=O)(=O)Nc1ccc2c3c(cc(Cl)nc13)C(=O)N2C		0.656				
CN1C(=O)c2cc(Cl)nc3c(NS(=O)(=O)c4ccc(Cl)cc4)ccc1c23		2.6				
COc1ccccc1S(=O)(=O)Nc1ccc2c3c(cc(NCCN4CCCCC4)nc13)C(=O)N2C		0.328	7.07			
COc1cc(Cl)ccc1S(=O)(=O)Nc1ccc2c3c(cc(-c4cnn(C5CC5)c4)cc13)C(=O)N2C		0.0375	0.435			
COc1ccccc1S(=O)(=O)Nc1ccc2c3c(cc(N4CCN(C(=O)OC(C)(C)C)CC4)nc13)C(=O)N2C		0.334	2.17			
COc1cc(OC)c2c(=O)[nH]c(-c3cc(C)c(OCCO)c(C)c3)nc2c1 [APABETALONE]				9.17		
COc1ccccc1S(=O)(=O)Nc1ccc2c3c(cc(N4CCN(C)CC4)nc13)C(=O)N2C		0.1	2.12	92.5		
COc1ccccc1S(=O)(=O)Nc1ccc2c3c(cc(-c4ccco4)nc13)C(=O)N2C		0.0351	0.982	64.9		
Cc1cc(/N=N/c2ccc(S(=O)(=O)Nc3ccc(C#N)cc3)cc2)cc(C)c1O		0.328	7.07	43.4		
COc1ccccc1S(=O)(=O)Nc1ccc2c3c(cc(-c4cnn(C)c4)nc13)C(=O)N2C		0.0126	0.289			
COc1ccccc1S(=O)(=O)Nc1ccc2c3c(cc(-n4ccnc4)nc13)C(=O)N2C		0.889	4.11			
CN1C(=O)c2cccc3c(NS(=O)(=O)c4cccc5cccnc45)ccc1c23		0.329	0.26		4.13	
Cc1ccc(S(=O)(=O)Nc2ccc3c4c(ccnc24)C(=O)N3C)cc1		1.57	6.62		5.12	
Cc1ccccc1NS(=O)(=O)c1ccc2c3c(cccc13)C(=O)N2C		15.5			2.23	
COc1ccccc1S(=O)(=O)Nc1ccc2c3c(cc(-c4cnn(C5CC5)c4)cc13)C(=O)N2C		0.0144	0.238	83.7		
CN1C(=O)c2cccc3c(NS(=O)(=O)c4c(F)cccc4F)ccc1c23		9.07			3.73	
CCN1C(=O)c2cccc3c(NS(=O)(=O)c4ccc(Cl)cc4)ccc1c23		0.237	2.72		6.36	
